Here are results for four molecules from patent publication US9717742B2, “Oxysterol analogue OXY133 induces osteogenesis and hedgehog signaling and inhibits adipogenesis” (The Regents of the University of California, priority 2012, dated 2017).

For test [1], the system named is M2-10B4 (M2) bone marrow stromal cells. The experiment in a line: Alkaline phosphatase (ALP) activity assay on whole cell extracts, M2 cells. Format: cell-based, mouse. The note with it: data not shown.
The test system of test [2] is Lewis rats. The settings on record: prior studies (15), 4 weeks; cited from earlier work.
The subject of test [3] is 8×-Gli luciferase reporter (Hedgehog signaling). The experiment in a line: Gli-dependent luciferase reporter assay in C3H cells. Format: cell-based, mouse. The note with it: 48 hours. The procedure: After 4 days ALP activity, and after 7 days the expression of osteogenic genes ALP, BSP, and OSX was measured by quantitative real-time PCR (p<0.001 for control vs. Oxy133, and for Oxy133 vs. Oxy133+Cyc for ALP activity and for the expression of all genes shown). […] (p<0.001 for control vs. Oxy133 at 100 nM, 250 nM, and 1 μM Oxy133). (FIG. 4C) The amount of YFP-Smo captured by 20S beads or control beads was compared in samples containing either no competitor or 50 μM of a free competitor sterol (20S, Oxy133 or Oxy16). The YFP-Smo captured by the beads was measured by Western blot (top) and plotted (bottom) relative to the amount captured in the binding reaction with no competitor.
Cells at 70% confluence in 24-well plates were transiently transfected with Gli-dependent firefly luciferase and Renilla luciferase vectors as we have previously described (17, 18). […] Luciferase activity was assessed using the Dual Luciferase Reporter Assay System (Promega Corporation, Madison, Wis.) according to manufacturer's instructions after cells were treated for 48 hours.

For test [4], the system named is Lewis rats. Put plainly: Posterolateral intertransverse process spinal fusion at L4-L5 in rats. It is filed as in vivo, rat. The settings on record: for Fusion Rates (%) Manual Palpation / Fusion Rates (%) Micro-CT / Fusion Rates (%) X-ray: at sacrifice (8 weeks); for bilateral fusion on radiographs: four weeks; for trabecular thickness: micro-CT, 8 weeks. The procedure: Thirty-eight 8-week-old male Lewis rats were purchased from Charles River Laboratories (Wilmington, Mass.) and were maintained and housed at the UCLA vivarium in accordance with regulations set forth by the UCLA Office of Protection of Research Subjects. The study was performed under a protocol approved by the UCLA Animal Research Committee (ARC).
Animals were pre-medicated with sustained release buprenorphine thirty minutes prior to surgery and anesthetized with 2% isoflurane administered in oxygen (1 L/min). The surgical site was shaved and disinfected with Betadine and 70% ethanol. Posterolateral intertransverse process spinal fusion at L4-L5 was performed as in prior studies (21, 22). The L6 vertebral body was identified using the iliac crest as a landmark. A 4-cm longitudinal midline incision was made through the skin and subcutaneous tissue over L4-L5 down to the lumbodorsal fascia. A 2-cm longitudinal paramedial incision was then made in the paraspinal muscles bilaterally to expose the transverse processes of L4-L5, which were decorticated with a high-speed burr. The surgical site was then irrigated with sterile saline, and 5 mm×5 mm×13 mm pieces of collagen sponge (Helistat, Integra Life Sciences) containing dimethyl sulfoxide (DMSO) control, rhBMP-2, or Oxy133 were placed bilaterally, with each implant spanning the transverse processes. The implants were then covered with the overlying paraspinal muscles and the lumbodorsal fascia and skin were closed with 4-0 Prolene sutures (Ethicon, Inc., Somerville, N.J.). Animals were allowed to ambulate, eat, and drink ad libitum immediately after surgery.
Posteroanterior radiographs of the lumbar spine were taken on each animal at 4, 6, and 8 weeks after surgery using a Faxitron LX60 cabinet radiography system and evaluated blindly by two independent observers employing the following standardized scale: 0, no fusion; 1, unilateral fusion; and 2, complete bilateral fusion. The scores from the observers were added together and only a score of 4 was considered as complete fusion.
Eight weeks after surgery, animals were euthanized and the spines were surgically removed and evaluated by two blinded independent observers for motion between levels. Nonunion was recorded if motion was observed between the facets or transverse processes on either side. Complete fusion was recorded if no motion was observed bilaterally. Spines were scored as either fused or not fused. Unanimous agreement was required to consider complete fusion.
Each removed spine was analyzed by high resolution micro-computed tomography (micro-CT), using a SkyScan 1172 scanner (SkyScan, Belgium) with a voxel isotropic resolution of 20 μm and an X-ray energy of 55 kVp and […] to further assess the fusion rate and observe the fusion mass as we have previously reported (15). Three hundred and sixty projections were acquired over an angular range of 180° with steps of 0.5 with an exposure time of 220 msec/slice. Five frames were averaged at each rotation step to get better signal to noise ratio. A 0.5 mm aluminum filter was used to narrow down the X-ray beam frequency in order to minimize beam hardening artifact. Virtual image slices were reconstructed using the cone-beam reconstruction software version 2.6 based on the Feldkamp algorithm (SkyScan). These settings produced serial cross-sectional 1024×1024 pixel images. Sample re-orientation and 2D visualization were performed using DataViewer (SkyScan). 3D visualization was performed using Dolphin Imaging version 11 (Dolphin Imaging & Management Solutions, Chatsworth, Calif.). Fusion was defined as the bilateral presence of bridging bone between the L4 and L5 transverse processes. The reconstructed images were judged to be fused or not fused by two experienced independent observers.

In the case of `CC1=C2C[C@H]3[C@@H](CC=C4C[C@@H](O)CC[C@@]43C)[C@@H]2CC[C@]12O[C@@H]1C[C@H](C)CN[C@H]1[C@H]2C` [Cyclopamine], the “inhibition of Oxy133-induced ALP activity and expression of osteogenic markers” value in test [1] is reported as “completely inhibited”.
For the molecule `CC(C)CCCC(C)(O)C1CCC2C3CC(O)C4CC(O)CCC4(C)C3CCC21C` (stereo not shown) [Oxy34], the “fusion at the 4 week time point in prior studies” value in test [2] is on record as “no fusion”.
Consider `C=C(C)CCC[C@](C)(O)[C@H]1CC[C@H]2[C@@H]3C[C@H](O)[C@H]4C[C@@H](O)CC[C@]4(C)[C@H]3CC[C@@]21C` [Oxy49], for which the “fusion at the 4 week time point in prior studies” value in test [2] is listed as “no fusion”.
For the molecule `CCCCCC[C@](C)(O)[C@H]1CC[C@H]2[C@@H]3C[C@H](O)[C@H]4C[C@@H](O)CC[C@]4(C)[C@H]3CC[C@@]21C` [Oxy133, (3S,5S,6S,8R,9S,10R,13S,14S,17S) 17-((S)-2-hydroxyoctan-2-yl)-10,13-dimethylhexadecahydro-1H-cyclopenta[a]phenanthrene-3,6-diol], in test [3] (100 nM), the “induction of Gli-dependent reporter activity” value is given as 5 fold. The “induction of Gli-dependent reporter activity” value in test [3] (at 1 Oxy133 (unit not given)) was determined as 17 fold. Further, in test [4] (Oxy133 0.2 mg), the “Fusion Rates (%) Manual Palpation” value is on record as 0%, the “Fusion Rates (%) Micro-CT” value was found to be 0% and the “Fusion Rates (%) X-ray” value came to 0%. In test [4] (Oxy133 2 mg), the “bilateral fusion, micro-CT” value is 4/8; the “Fusion Rates (%) Manual Palpation” value is given as 50%; the “Fusion Rates (%) Micro-CT” value came out at 50%; the “Fusion Rates (%) X-ray” value turned out to be 50%. Besides, in test [4] (Oxy133 2 mg), the “bilateral fusion on radiographs” value is 3/8 and the “trabecular thickness” value is 134.008. Besides, in test [4] (Oxy133 2 mg, after sacrifice), the “bilateral fusion confirmed on manual palpation” value was 4/8. Moreover, the fusion on radiographs in test [4] (Oxy133 2 mg, eight weeks) is recorded as 4/8. Further, the “bilateral fusion by manual assessment” value in test [4] (Oxy133 20 mg, after sacrifice) is 6/7. In test [4] (Oxy133 20 mg), the “Fusion Rates (%) Manual Palpation” value is reported as 86%, the “Fusion Rates (%) Micro-CT” value came to 100%, the “Fusion Rates (%) X-ray” value was determined as 100% and the “bilateral fusion on radiographs” value is on record as 6/7. Moreover, the “trabecular thickness” value in test [4] (Oxy133 20 mg) came to 124.737.
